Data set [1] in a line: Test 3-1: metabolic stability test of human liver microsome (0.1 mg/mL). Format: in vitro ADME. As to conditions: test compound 0.1 μmol/L, 37° C., 30 minutes. The method in brief:
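Compound at 0.1 μmol/L incubated 30 min at 37 °C with human liver microsomes (0.1 mg/mL) and NADPH (3.2 mmol/L) in 25 mmol/L phosphate buffer, pH 7.4. Remaining parent measured by LC-MS; stability given as −ln(residual ratio)/time/microsome concentration (mL/min/mg protein).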

Another data set addresses human 5-HT1A receptor (Homo sapiens (Human), UniProt P08908). Put plainly: Test 2: binding activity to human 5-HT1A receptor ([3H] 8-OH-DPAT, CHO cell membrane). Particulars: [3H] 8-OH-DPAT; read-out: 5-HT1A binding affinity (Ki value).
A further data set deals with Wistar male rat. Put plainly: Test 8: forced swimming test. Format: in vivo. As to conditions: oral, once a day, 5 mg/kg administration. The procedure:
Test 8: Forced Swimming Test
The antidepressive effect of the present compound was evaluated in a manner mentioned below.
The test was carried out with 8-week-old Wistar male rat in 4-day test schedule. On the 1st day of the test, the rat was put into a transparent plastic bath filled with 5.8 L of tap water at 25° C., and made to swim for 15 minutes as swimming training. After the swimming training, the rat was rapidly wiped to remove the attached waterdrop, and returned to the home cage. 15 minutes after the training, the present compound or a positive control compound was orally administered with methylcellulose suspension to the rat. On the next day of the training and the day after next, the present compound or the positive control compound was orally administered with methylcellulose suspension to the rat once a day. On the 4th day, the swimming test was carried out. On the day of the swimming test, the present compound or the positive control compound was orally administered with methylcellulose suspension to the rat one hour before the start of the test. The swimming test was carried out with the rat in the above-mentioned water bath for 5 minutes. The swimming movement of the individual was recorded with a video from the side of the water bath, and the immobility time was measured with a stop-watch. […]

The target in a further data set is hERG channel (Homo sapiens (Human), UniProt Q12809). The data set can be described thus: Test 5-1: activity for inhibiting hERG channel (whole-cell patch clamp, hERG-CHO cell, Qpatch). Format: cell-based. Particulars: read-out: hERG inhibition IC50. The method, then:
Test 5-1: Evaluation of Activity for Inhibiting hERG Channel
The activity of the present compound for inhibiting hERG channel was measured by whole-cell patch clamp method with auto patch clamp system, using CHO cell wherein hERG channel involved in human rapidly activating delayed rectifier potassium current (IKr) was forcibly expressed.
hERG-CHO cell purchased from ChanTest was incubated at 37° C. in a CO2 incubator, and the cell was exfoliated from the flask with trypsin to prepare a cell suspension, shortly before the hERG current measurement.
Extracellular fluid: 2 mmol/L CaCl2, 1 mmol/L MgCl2, 10 mmol/L HEPES, 4 mmol/L KCl, 145 mmol/L NaCl, 10 mmol/L glucose
Intracellular fluid: 5.4 mmol/L CaCl2, 1.8 mmol/L MgCl2, 10 mmol/L HEPES, 31 mmol/L KOH, 10 mmol/L EGTA, 120 mmol/L KCl, 4 mmol/L Na2-ATP
Test compound solution: The test compound was dissolved in DMSO by adjusting the concentration to 2 mmol/L or 20 mmol/L to prepare each test compound solution. […] (Measurement of Current Value and Data Analysis)
The cell suspension, the extracellular fluid, the intracellular fluid, and the measurement plate were set in an auto patch clamp system, and the hERG current was measured by whole-cell patch clamp method. […] Each pulse interval was 15 seconds. The data analysis was carried out with Qpatch Assay Software (Biolin Scientific). The test was carried out applying increscently 4 concentrations of each test compound, and the average of the peak tail currents that were obtained by the last 3 stimulations in each applied concentration was determined to be the evaluated data. By using the current inhibition rate for the pre-applied current at each concentration of each test compound, IC50 value was calculated by Hill equation with the software.
A general note: The hERG channel carries a current that helps repolarise heart muscle cells.

A further data set has as its target human D2 receptor (Homo sapiens (Human), UniProt P14416). Put plainly: Test 2: binding activity to human D2 receptor ([3H] spiperone, CHO cell membrane). As to conditions: [3H] spiperone; read-out: D2 binding affinity (Ki value).
In another data set the test system is SD male rat. Put plainly: Test 6: contextual fear conditioning test. It is filed as in vivo. Particulars: 15 mg/kg administration. The procedure: Test 6: Contextual Fear Conditioning Test
The antianxiety of the present compounds was evaluated in a manner mentioned below.
The evaluation of an 8-week-old SD male rat with a fear conditioning test system (O'HARA & CO., LTD.) was carried out in 2-day test schedule. On the 1st day of the test, by giving 0.5 mA of electric shock to the rat as unconditioned stimulus 5 times for 6 minutes, the rat was made to learn the relationship the context (the illuminance in the cage: 200 lx) which was given as conditioned stimulus, and phobic stimulus. On the 2nd day, the present compound was subcutaneously administered with saline solution to the rat, or orally administered with methylcellulose suspension to the rat. 0.5 or 1 hour after the administration, the rat was made to softly enter the cage under the condition in which the unconditioned stimulus was not given in the context. The time of cataleptic freezing reaction that the rat took for 5-minute freely-moving period and its ratio were measured. The ratios of cataleptic freezing reaction between the solvent-administration group and the present compound-administration group were compared to be statistically processed.

The source of these data is patent publication US10800755B2, “2,6-disubstituted pyridine derivative” (Sumitomo Dainippon Pharma Co., Ltd., priority 2017, dated 2020).

Molecules are shown by their SMILES.

The Ki is a dissociation constant, usually derived from enzyme kinetics or from competition with a known ligand. As usually defined, the IC50 is the concentration at which inhibition is half-maximal.

hERG channel, sequence (Q12809 whole entry): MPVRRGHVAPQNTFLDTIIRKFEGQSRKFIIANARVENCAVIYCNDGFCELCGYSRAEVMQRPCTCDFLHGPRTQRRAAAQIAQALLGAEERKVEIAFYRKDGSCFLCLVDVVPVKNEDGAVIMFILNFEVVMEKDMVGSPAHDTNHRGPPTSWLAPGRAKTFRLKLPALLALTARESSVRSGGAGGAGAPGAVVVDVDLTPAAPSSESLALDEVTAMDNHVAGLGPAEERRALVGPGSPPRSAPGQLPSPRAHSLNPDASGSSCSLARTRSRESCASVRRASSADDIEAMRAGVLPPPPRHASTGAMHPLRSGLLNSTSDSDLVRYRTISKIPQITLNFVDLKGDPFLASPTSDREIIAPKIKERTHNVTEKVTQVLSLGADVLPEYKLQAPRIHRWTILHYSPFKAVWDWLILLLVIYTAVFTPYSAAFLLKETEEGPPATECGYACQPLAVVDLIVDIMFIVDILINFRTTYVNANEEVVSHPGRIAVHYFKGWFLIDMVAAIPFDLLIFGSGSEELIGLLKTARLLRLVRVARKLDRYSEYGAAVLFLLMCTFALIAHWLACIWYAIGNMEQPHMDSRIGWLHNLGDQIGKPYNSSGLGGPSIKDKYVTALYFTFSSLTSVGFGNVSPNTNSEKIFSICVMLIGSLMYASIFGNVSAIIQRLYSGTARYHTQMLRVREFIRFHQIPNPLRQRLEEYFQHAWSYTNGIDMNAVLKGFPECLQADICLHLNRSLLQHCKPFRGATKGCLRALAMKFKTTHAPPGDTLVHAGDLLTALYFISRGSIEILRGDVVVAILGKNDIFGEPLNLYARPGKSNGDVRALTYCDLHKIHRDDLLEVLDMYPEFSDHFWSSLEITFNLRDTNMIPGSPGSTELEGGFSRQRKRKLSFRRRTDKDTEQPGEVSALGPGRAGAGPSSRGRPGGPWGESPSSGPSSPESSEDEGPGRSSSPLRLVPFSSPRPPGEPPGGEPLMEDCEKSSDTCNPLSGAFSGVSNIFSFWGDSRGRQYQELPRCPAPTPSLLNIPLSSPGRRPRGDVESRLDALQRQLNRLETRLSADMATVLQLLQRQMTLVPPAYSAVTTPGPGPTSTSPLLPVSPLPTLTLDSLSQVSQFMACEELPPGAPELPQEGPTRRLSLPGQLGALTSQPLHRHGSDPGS
human D2 receptor, sequence (P14416 whole entry): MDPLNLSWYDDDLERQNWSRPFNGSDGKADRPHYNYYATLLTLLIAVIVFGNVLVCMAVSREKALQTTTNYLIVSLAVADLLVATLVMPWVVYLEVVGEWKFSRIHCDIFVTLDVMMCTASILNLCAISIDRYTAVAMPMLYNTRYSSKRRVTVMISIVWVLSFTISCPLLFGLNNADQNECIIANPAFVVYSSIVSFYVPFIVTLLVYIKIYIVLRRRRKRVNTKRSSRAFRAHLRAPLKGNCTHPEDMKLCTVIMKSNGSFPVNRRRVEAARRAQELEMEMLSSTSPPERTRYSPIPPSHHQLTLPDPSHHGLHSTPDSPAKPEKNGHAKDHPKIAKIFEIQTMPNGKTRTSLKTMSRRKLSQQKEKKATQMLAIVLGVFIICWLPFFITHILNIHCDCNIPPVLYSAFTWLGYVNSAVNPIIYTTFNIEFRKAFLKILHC
human 5-HT1A receptor, sequence (P08908 whole entry): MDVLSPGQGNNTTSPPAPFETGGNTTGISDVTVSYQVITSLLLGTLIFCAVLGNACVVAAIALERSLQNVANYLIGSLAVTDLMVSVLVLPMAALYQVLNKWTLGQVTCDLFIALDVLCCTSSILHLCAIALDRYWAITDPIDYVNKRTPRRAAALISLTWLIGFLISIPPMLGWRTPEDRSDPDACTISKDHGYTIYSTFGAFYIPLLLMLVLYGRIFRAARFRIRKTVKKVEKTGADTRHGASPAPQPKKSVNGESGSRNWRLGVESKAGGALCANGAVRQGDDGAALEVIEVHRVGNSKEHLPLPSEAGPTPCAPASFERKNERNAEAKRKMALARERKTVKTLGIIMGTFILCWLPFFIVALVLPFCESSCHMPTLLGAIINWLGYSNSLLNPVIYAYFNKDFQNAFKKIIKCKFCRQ

Turning to `O=C(NCCN1CCC(c2cccc(C(F)(F)F)n2)CC1)C1CCC(F)(F)CC1` [Example 1, 4,4-Difluoro-N-(2-{4-[6-(trifluoromethyl)pyridin-2-yl]piperidin-1-yl}ethyl)cyclohexane-carboxamide], the “Metabolic stability of human liver microsome” value in data set [1] amounted to 0.073 mL/min/mg protein. The Ki at human 5-HT1A receptor amounted to 0.4 nM; on human D2 receptor, 1140 nM. For the same compound, in the data set on Wistar male rat, the “decrease of the immobility time for the solvent-administration group” value turned out to be 74.7%. Moreover, the IC50 at hERG channel came out at 2500 nM. The “decrease of the cataleptic freezing reaction for the solvent-administration group” value in the data set with SD male rat is 82.5%.
